Measured values published in the NIST ThermoML archive (doi:10.1021/je049688b).
± gives the expanded uncertainty stated by the source.

Conditions: Liquid, Ebulliometric method (Recirculating still)

vapor or sublimation pressure (337.75 K) | Structure (SMILES) | vapor or sublimation pressure (329.35 K)
 | CC(C)=O [acetone] | 101 ± 1.3 kPa
101 ± 1.3 kPa | CO [methanol] | 
